Reference: patent US20100215638A1, “METHOD FOR TREATMENT OF PROSTATE CANCER AND SCREENING OF PATIENTS BENEFITING FROM SAID METHOD” (VALTION TEKNILLINEN TUTKIMUSKESKUS, priority 2006, published 2010)
Read-outs that look alike come from different tables or passages of the source.

Columns and labels:
Assay type in all cases: cell-based, human
[1] = tested on: ERG-positive prostate cancer cell line VCaP; assay: Bead-array gene expression with GSEA of MSigDB pathways
Experimental: Gene expression analysis by bead-arrays. Early passage VCaP and LNCaP cells were grown to approximately 70% confluence before treatments with 300 nM trichostatin A (Sigma) or 500 nM MS-275 (Sigma) for 6 and 12 hours. For androgen ablation, the cells were plated in androgen-deprived medium. 300 nM trichostatin A (Sigma) or 500 nM MS-275 (Sigma) were added for 6 hours and 12 hours before harvesting. Hormone-replacement treatment was performed by supplementing the full RPMI 1640 medium with 10% charcoal-stripped serum. Total RNA was extracted according to the manufacturer's protocol using Trizol reagent (Invitrogen, Carlsbad, Calif.). Integrity of the RNA prior to hybridization was monitored using a Bioanalyzer 2100 (Agilent, Santa Clara, Calif.) (according to manufacturer's instruction). […] The arrays were scanned with the BeadArray Reader (Illumina).
Statistical analysis. The raw data was quantile-normalized and analyzed by using the R/Bioconductor software (http://www.r-project.org/, http://www.bioconductor.org/). Mean for ERG signature genes for at least two replicates per condition was calculated and the treatment values were extracted from controls to illustrate the fold changes presented on Table 5. […]

ERG gene signature = assay: Bead-array gene expression with GSEA of ERG gene signature reversal; settings: 12 h treatment, 300 nM TSA or 500 nM MS-275
Experimental: Gene expression analysis by bead-arrays. Early passage VCaP and LNCaP cells were grown to approximately 70% confluence before treatments with 300 nM trichostatin A (Sigma) or 500 nM MS-275 (Sigma) for 6 and 12 hours. For androgen ablation, the cells were plated in androgen-deprived medium. 300 nM trichostatin A (Sigma) or 500 nM MS-275 (Sigma) were added for 6 hours and 12 hours before harvesting. Hormone-replacement treatment was performed by supplementing the full RPMI 1640 medium with 10% charcoal-stripped serum. Total RNA was extracted according to the manufacturer's protocol using Trizol reagent (Invitrogen, Carlsbad, Calif.). Integrity of the RNA prior to hybridization was monitored using a Bioanalyzer 2100 (Agilent, Santa Clara, Calif.) (according to manufacturer's instruction). 500 ng of purified total RNA was amplified with the TotalPrep Kit (Ambion, Austin, Tex.) and the biotin labelled cRNA was hybridized to Sentrix HumanRef-8 Expression BeadChips (Illumina, San Diego, Calif.). The arrays were scanned with the BeadArray Reader (Illumina).
Statistical analysis. The raw data was quantile-normalized and analyzed by using the R/Bioconductor software (http://www.r-project.org/, http://www.bioconductor.org/). Mean for ERG signature genes for at least two replicates per condition was calculated and the treatment values were extracted from controls to illustrate the fold changes presented on Table 5. Gene set enrichment analysis (GSEA) was performed for the HDAC inhibitor treatment and androgen ablation data with the GSEA software v2.0.1 (http://www.broad.mit.edu/gsea/). Our own previously defined ERG gene signature was used to evaluate the statistical significance of the signature reversal by HDAC inhibitors and androgen ablation (Table 6.). MSigDB gene sets were used for studying the pathways affected by HDAC inhibitors TSA and MS-275 in ERG-positive prostate cancer cell line VCaP (FIGS. 12 and 13).

[2] = tested on: DuCaP prostate cancer cell; assay: Cell titer blue assay of cell number after TSA treatment; settings: 48 h incubation, 384-well plates 2000 cells/well
Experimental: (§1) FIG. 6. Analysis of the effect of Trichostatin A (TSA) treatment on VCaP and DuCaP prostate cancer cell number by using cell titer blue assay. Briefly, cells were plated in low concentration on 384-well plates (2000 cells/well) and let to attach overnight. Drug containing medium was added and CTB assay measurement with Envision Plate reader were done after 48 h incubation. […] For drawing the figure, cell culture medium only containing well intensities were extracted from actual measurements. Each data point is represented by the mean value of three independent measurements (mean+S.D.). Drug concentrations are presented on x-axis and relative cell number (control level set to 1) on y-axis. Statistical significance ([…]) of the differences between cell amounts in treated wells in comparison to untreated control wells is indicated with star using Student's t-test assuming that the data is unpaired and variance is unequal.

[3] = tested on: VCaP prostate cancer cell; assay: as above; settings: 48 h incubation, 384-well plates 2000 cells/well
Experimental: as §1

Nc1ccccc1NC(=O)c1ccc(CNC(=O)OCc2cccnc2)cc1 [MS-275]
effect on pathways associated to ERG-positive prostate tumors [1]: reverses the pathways associated to ERG-positive prostate tumors

CC(/C=C/C(=O)NO)=C\[C@@H](C)C(=O)c1ccc(N(C)C)cc1 [TSA, Trichostatin A]
effect on pathways associated to ERG-positive prostate tumors ([1]; VCaP, GSEA with MSigDB gene sets): reverses the pathways associated to ERG-positive prostate tumors | ES (Enrichement score) (ERG gene signature): −0.75 | Gene set (number of genes showing core enrichment/total number of genes in the ERG gene set) (ERG gene signature): 29/47 | NES (Normalized enrichment score) (ERG gene signature): −1.63 | effect on cell number (relative cell number, cell titer blue assay) [2]: clear dose dependent growth inhibition | effect on cell number (relative cell number, cell titer blue assay) ([2]; listed as Trichostatin A): strong responses | effect on cell number (relative cell number, cell titer blue assay) [3]: clear dose dependent growth inhibition | effect on cell number (relative cell number, cell titer blue assay) ([3]; listed as Trichostatin A): strong responses
